This is an account of results in paper PMC4585971, “Functional Analyses of the Toxoplasma gondii DNA Gyrase Holoenzyme: A Janus Topoisomerase with Supercoiling and Decatenation Abilities” (Scientific Reports, 2015).

In data set [1] the target is T1, EcGyrB (Escherichia coli, UniProt P0AES6).
T1 construct: gene gyrB
Put plainly: native PAGE, nucleotide-induced dimerisation ([…] AMPPNP). Type of data set: binding.

For data set [2], the system named is Nc1ncnc2c1ncn2[C@@H]1O[C@H](COP(=O)(O)OP(=O)(O)OP(=O)(O)O)[C@@H](O)[C@H]1O. The data set can be described thus: purified protein. The settings on record: Mg2+.

Turning to `Nc1ncnc2c1ncn2[C@@H]1O[C@H](CO[P@](=O)(O)O[P@](=O)(O)NP(=O)(O)O)[C@@H](O)[C@H]1O` [AMPPNP], the “native PAGE, nucleotide-induced dimerisation (4 mM AMPPNP)” value in data set [1] is “This dimerisation pattern (monomer in the absence of nucleotide, dimer in the presence) is the same as for EcGyrB”. For orientation: Km means the substrate concentration at which the rate is half of its maximum. Turning to EcGyrB (Escherichia coli K-12), the Michaelis constant (Km) in data set [2] worked out at 540 ± 50 µM.
